Like-named read-outs stand apart in the source and are kept apart here.
Test system: GM3
Experiment: GM3 Elisa assay
Assay type: cell-based
Conditions: B16-FO cells, read-out: IC50_uM_Mean
Description: B16-FO cells from ATCC (American Tissue Culture Collection) were grown in DMEM media (ATCC) with 10% Fetal Bovine Serum (Hyclone) and Pen/Step/Glutamine (Biowhittaker). 4000 cells per well were plated on collagen coated plates (BD) and allowed to attach for 6 hours in an incubator (37 degrees, 5% CO2). After 6 hours the compounds and controls were added to the wells, the plates mixed and returned to the incubator for 2 days. Day of assay the cells were fixed for 20 minutes with 1% formaldehyde and then washed with Tris Buffered Saline (TBS) 3 times, 150 μl of TBS was left in the wells and 50 μl of goat serum (Invitrogen) was added, the plates mixed and incubated for 1 hour at room temperature. The plates were flicked and the cells incubated with the monoclonal Antibody to GM3 (NeuAc) (Cosmo) for 45 minutes as room temperature. The plates were then washed 3 times with TBS, leaving 150 μl of TBS in the wells and Peroxidase AffinPure F (ab′) 2 frag Gt Anti-mouse IgM, μ Chain Specific (Jackson Immuno Research) was added in 50 μl, the plates mixed and incubated for 45 minutes at room temperature. The plates were washed 3 times with TBS, flicked and blotted and 100 μl of Quantablu (Pierce) was added to the wells and incubated for 1 hour then read on a Fluorometer at Ex 325 and Em 420. The data was then analyzed using standard programs.

[1] = 48 h, Table 1, 2 days incubation
[2] = 48 h, Table 2, 2 days incubation

Compound | IC50 (Table 3 (IC 50 Values)) [nM] | other results
COc1ccc(OCCC(=O)N[C@H](CN2CCCC2)[C@H](O)c2ccc(Cl)s2)cc1 [Compound 493] | 1000 to 3000 | –
COc1ccc(C(=O)CCCC(=O)N[C@H](CN2CC[C@@H](F)C2)[C@H](O)c2ccc(OC(C)C)cc2)cc1 [Compound 444] | 100 to 1000 | –
COc1ccc(C(=O)CCCCCCC(=O)N[C@H](CN2CCCC2)[C@H](O)c2ccc3c(c2)OCCO3)cc1 [Compound 144, N-((1R,2R)-1-(2,3-dihydrobenzo[β][1,4]dioxin-6-yl)-1-hydroxy-3-(pyrrolidin-1-yl)propan-2-yl)-8-(4-methoxyphenyl)-8-oxooctanamide] | – | IC50 [1]: ≤ 100 nM
COc1ccc(C(=O)CCCCC(=O)N[C@H](CN2C3CCC2CC3)[C@H](O)c2ccc(OC(C)C)cc2)cc1 [Compound 376] | ≤ 100 | –
COc1ccc(C(=O)CCCCC(=O)N[C@H](CN2CCCC2)[C@H](O)c2ccc(OCCOc3ccccc3F)cc2)cc1 [Compound 366] | ≤ 100 | –
CCCCCCCC(=O)N[C@H](CN1C2CCC1CC2)[C@H](O)c1ccc2c(c1)OCCO2 [Compound 524] | 100 to 1000 | –
CCCCCCCC(=O)N[C@H](CN1CCCC1)[C@H](O)c1ccc(OC)c(C)c1 [Compound 388] | ≤ 100 | –
COc1ccc(OCCC(=O)N(Cc2cccc3ccncc23)[C@H](CN2CCCC2)[C@H](O)c2ccc(O)cc2)cc1 [Compound 719] | 3000 to 10000 | –
COCCOc1ccc(C(=O)CCCCC(=O)N[C@H](CN2CC[C@H](O)C2)[C@H](O)c2ccc(OC(C)C)cc2)cc1 [Compound 740] | ≤ 100 | –
CC(C)CC(=O)c1ccc(OCCC(=O)N[C@H](CN2CCCC2)[C@H](O)c2ccc3c(c2)OCCO3)cc1 [Compound 187, N-((1R,2R)-1-(2,3-dihydrobenzo[β][1,4]dioxin-6-yl)-1-hydroxy-3-(pyrrolidin-1-yl)propan-2-yl)-3-(4-(3-methylbutanoyl)phenoxy)propanamide (2S,3S)-2,3-dihydroxysuccinate] | – | IC50 [1]: 100 to 1000 nM
O=C(Cc1ccc(OC(F)(F)F)cc1)N[C@H](CN1CCCC1)[C@H](O)c1ccc(OCc2ccccc2)cc1 [Compound 702] | ≤ 100 | –
COc1ccc(C(=O)CCCCC(=O)N(CC2CCCC2)[C@H](CN2CCCC2)[C@H](O)c2ccc(O)cc2)cc1 [Compound 428] | 3000 to 10000 | –
COc1ccc(OCCC(=O)N(Cc2ccc(-c3nc(C)no3)cc2)[C@H](CN2CCCC2)[C@H](O)c2ccc(O)cc2)cc1 [Compound 721] | 3000 to 10000 | –
CCc1ccc(OCCC(=O)N[C@H](CN2CCCC2)[C@H](O)c2ccc3c(c2)OCCO3)cc1 [Compound 188, N-((1R,2R)-1-(2,3-dihydrobenzo[b][1,4]dioxin-6-yl)-1-hydroxy-3-(pyrrolidin-1-yl)propan-2-yl)-3-(4-ethylphenoxy)propanamide (2R,3R)-2,3-dihydroxysuccinate] | – | IC50 [1]: 100 to 1000 nM
O=C(N[C@H](CN1CCCC1)[C@H](O)c1ccc2c(c1)OCCO2)c1ccc(-c2ccccc2)cc1 [Compound 12, N-((1R,2R)-1-(2,3-dihydrobenzo[β][1,4]dioxin-6-yl)-1-hydroxy-3-(pyrrolidin-1-yl)propan-2-yl)biphenyl-4-carboxamide] | – | IC50 [1]: 100 to 1000 nM
O=C(CCCCCS(=O)(=O)C1CCCCC1)N[C@H](CN1CC[C@@H](F)C1)[C@H](O)c1ccc(OCc2ccccc2)cc1 [Compound 578] | ≤ 100 | –
CCCCOc1ccc([C@@H](O)[C@@H](CN2CC[C@H](O)C2)NC(=O)CCCCCOC2CCC2)cc1 [Compound 593] | 100 to 1000 | –
CCCCCCCC(=O)N[C@H](CN1CCCC1)[C@H](O)c1ccc(OCc2ccccc2)cc1 [Compound 703] | ≤ 100 | –
COc1ccc(C(=O)CCCCCC(=O)N[C@H](CN2CC3CC3C2)[C@H](O)c2ccc3c(c2)OCCO3)cc1 (stereo partly drawn) [Compound 537] | ≤ 100 | –
COc1ccc(C(=O)CCCCC(=O)N[C@H](CN2CCCC2)[C@H](O)c2ccc3c(c2)OC(F)(F)C(F)(F)O3)cc1 [Compound 403] | 1000 to 3000 | –
COc1ccc(C(=O)CCCCCC(=O)N[C@H](CNC2CCC2)[C@H](O)c2ccc3c(c2)OCCO3)cc1 [Compound 460] | 1000 to 3000 | –
COc1ccc(OCCC(=O)N[C@H](CN2CCCC2)[C@H](O)c2ccc(OC)c(Cl)c2)cc1 [Compound 711] | ≤ 100 | –
O=C(Cc1cccc(Oc2ccccc2)c1)N[C@H](CN1CCCC1)[C@H](O)c1ccc2c(c1)OCCO2 [Compound 86, N-((1R,2R)-1-(2,3-dihydrobenzo[b][1,4]dioxin-6-yl)-1-hydroxy-3-(pyrrolidin-1-yl)propan-2-yl)-2-(3-phenoxyphenyl)acetamide] | – | IC50 [1]: ≤ 100 nM
COc1ccc(C(=O)CCCC(=O)N[C@H](CN2CCCC2)[C@H](O)c2ccc(OC)c(F)c2)cc1 [Compound 343] | 100 to 1000 | –

Compound | IC50 (Table 3 (IC 50 Values)) [nM] | other results
CC(C)Oc1ccc(C(=O)CCCCC(=O)N[C@H](CN2CCCC2)[C@H](O)c2ccc3c(c2)OCO3)cc1 [Compound 266] | – | IC50 [2]: ≤ 100 nM
O=C(NCc1ccc(Br)cc1)N[C@H](CN1CCCC1)[C@H](O)c1ccc2c(c1)OCCO2 [Compound 40, 1-(4-bromobenzyl)-3-((1R,2R)-1-(2,3-dihydrobenzo[β][1,4]dioxin-6-yl)-1-hydroxy-3-(pyrrolidin-1-yl)propan-2-yl)urea] | – | IC50 [1]: ≤ 100 nM
CCCCCCCC(=O)N[C@H](CN1CCC(F)C1)[C@H](O)c1ccc2c(c1)OCCO2 (stereo partly drawn) [Compound 322] | – | IC50 [2]: 100 to 1000 nM
COc1ccc(OCCC(=O)N[C@H](CN2CCCCC2C)[C@H](O)c2ccc3c(c2)OCCO3)cc1 (stereo partly drawn) [Compound 606] | 3000 to 10000 | –
CC(C)(C)c1ccc(C(=O)CCCCCC(=O)N[C@H](CN2CCCC2)[C@@H](O)c2ccc3c(c2)OCCO3)cc1 [Compound 160, 7-(4-tert-butylphenyl)-N-((1R,2R)-1-(2,3-dihydrobenzo[β][1,4]dioxin-6-yl)-1-hydroxy-3-(pyrrolidin-1-yl)propan-2-yl)-7-oxoheptanamide] | – | IC50 [1]: 100 to 1000 nM
O=C(CCCOn1nnc2ccccc21)N[C@H](CN1CC[C@@H](F)C1)[C@H](O)c1ccc2c(c1)OCCO2 [Compound 651] | 1000 to 3000 | –
CCCCCCCC(=O)N[C@H](CN1CCCC1)[C@H](O)c1sccc1C [Compound 360] | 100 to 1000 | –
COc1ccc(C(=O)CCCCC(=O)N[C@H](CN2CCCC2)[C@H](O)c2ccc(O)cc2)cc1 [Compound 414] | 100 to 1000 | –
Cc1ccc(OCCC(=O)N[C@H](CN2CCCC2)[C@H](O)c2ccc3c(c2)OCCO3)cc1 [Compound 59, N-((1R,2R)-1-(2,3-dihydrobenzo[β][1,4]dioxin-6-yl)-1-hydroxy-3-(pyrrolidin-1-yl)propan-2-yl)-3-(p-tolyloxy)propanamide] | – | IC50 [1]: ≤ 100 nM
COc1ccc(C(=O)CCCCCC(=O)N[C@H](CN2CCCC(C)C2)[C@H](O)c2ccc3c(c2)OCCO3)cc1 (stereo partly drawn) [Compound 609] | 100 to 1000 | –
CCCCCCCC(=O)N[C@H](CN1CCCCC1C)[C@H](O)c1ccc2c(c1)OCCO2 (stereo partly drawn) [Compound 605] | 3000 to 10000 | –
COc1ccc(OCCC(=O)N(Cc2nc3ccccc3s2)[C@H](CN2CCCC2)[C@H](O)c2ccc(O)cc2)cc1 [Compound 717] | 3000 to 10000 | –
CCCCCCCCCCCCNC(=O)N[C@H](CN1CCCC1)[C@H](O)c1ccc2c(c1)OCCO2 [Compound 7, 1-((1R,2R)-1-(2,3-dihydrobenzo[β][1,4]dioxin-6-yl)-1-hydroxy-3-(pyrrolidin-1-yl)propan-2-yl)-3-dodecylurea] | – | IC50 [1]: ≤ 100 nM
CCCCCCOc1ccc([C@@H](O)[C@@H](CN2CC[C@H](O)C2)NC(=O)CCCCCC(=O)c2ccc(OC)cc2)cc1 [Compound 372] | ≤ 100 | –
CCCCCCOc1ccc([C@@H](O)[C@@H](CN2CC[C@H](O)C2)NC(=O)CCCCC(=O)c2ccc(OC)cc2)cc1 [Compound 368] | ≤ 100 | –
O=C(Cc1csc(-c2cccc(C(F)(F)F)c2)n1)N[C@H](CN1CCCC1)[C@H](OC(=O)Cc1csc(-c2cccc(C(F)(F)F)c2)n1)c1ccc2c(c1)OCCO2 [Compound 255] | – | IC50 [2]: 1000 to 3000 nM
COc1ccc(C(=O)CCCCC(=O)N[C@H](CN2CCCC2)[C@H](O)c2ccc(OCCC(C)C)cc2)cc1 [Compound 438] | ≤ 100 | –
CC(=O)CCc1ccc(OCCC(=O)N[C@H](CN2CCCC2)[C@H](O)c2ccc3c(c2)OCCO3)cc1 [Compound 193, N-((1R,2R)-1-(2,3-dihydrobenzo[b][1,4]dioxin-6-yl)-1-hydroxy-3-(pyrrolidin-1-yl)propan-2-yl)-3-(4-(3-oxobutyl)phenoxy)propanamide (2R,3R)-2,3-dihydroxysuccinate] | – | IC50 [1]: 100 to 1000 nM
O=C(Cc1ccc(-c2cccc(Cl)c2)cc1)N[C@@H](CN1CCCC1)[C@@H](O)c1ccc2c(c1)OCCO2 [Compound 65, 2-(3′-chlorobiphenyl-4-yl)-N-((1R,2R)-1-(2,3-dihydrobenzo[β][1,4]dioxin-6-yl)-1-hydroxy-3-(pyrrolidin-1-yl)propan-2-yl)acetamide] | – | IC50 [1]: ≤ 100 nM
COc1ccc(C(=O)CCCCCC(=O)N[C@H](CN2CCCC2)[C@H](O)c2ccc(OC)c(OC)c2)cc1 [Compound 276] | – | IC50 [2]: 100 to 1000 nM
O=C(Cc1ccc(OC(F)(F)F)cc1)N[C@H](CN1CCCC1)[C@H](O)c1ccc(C(F)(F)F)cc1 [Compound 487] | 3000 to 10000 | –
O=C(NCc1ccc(Cl)cc1)N[C@H](CN1CC[C@H](O)C1)[C@H](O)c1ccc(OCCCCF)cc1 [Compound 503] | ≤ 100 | –
O=C(CCCOc1ccc(F)cc1)N[C@H](CN1CCCC1)[C@H](O)c1ccc2c(c1)OCCO2 [Compound 566] | ≤ 100 | –
CCCCCCCC(=O)N[C@H](CN1CCCC(C)C1)[C@H](O)c1ccc2c(c1)OCCO2 (stereo partly drawn) [Compound 613] | 3000 to 10000 | –

Reference: patent US8304447B2, “2-acylaminopropoanol-type glucosylceramide synthase inhibitors” (Genzyme Corporation, priority 2007, dated 2012)
